{"source": "patent US11401555B2", "about": "“Genetic polymorphisms associated with stroke, methods of detection and uses thereof” (CELERA CORPORATION, priority 2008, dated 2022)", "test": "Stroke statin response (SSR) in the PROSPER pravastatin trial: pravastatin-treated versus placebo-treated, by SNP genotype", "type": "in vivo, human", "settings": "for HR_RESP_unadj (hazard ratio, pravastatin-treated versus placebo-treated): endpoint stroke; for EVENTS_RESP (number of stroke events): pravastatin arm", "source_text": "(hCV26505812) for association with SSR in CARE (Table 37) and PROSPER (Table 38), including both unadjusted and adjusted analyses (adjusted for factors such as age, gender, smoking status, hypertension, diabetes, BMI, and LDL and HDL levels). Table 37 provides results in CARE, and Table 38 provides results in PROSPER (whether each analysis is unadjusted or adjusted is indicated in the “adjust” column in Table 37, or by “unadj” and “adj” column labels in Tables 38). With respect to Tables 22-32 and 37-38, the columns labeled “Genotype” (in Tables 22-28 and 37), “Geno_Placebo” (in Tables 29-30 and 38), and “Geno_Resp” (in Tables 31-32 and 38) indicate the genotype which the given stroke risk or SSR results correspond to. […] In Tables 29-32 and 38, the columns labeled “LOWER_PLACEBO” and “UPPER_PLACEBO” (Tables 29-30 and 38), and “LOWER_RESP” and “UPPER_RESP” (Tables 31-32 and 38), refer to the lower and upper 95% confidence intervals for the hazard ratios. See Example Six below for further information relating to Tables 22-32 and 37-38. […] As used herein, the term “benefit” (with respect to a preventive or therapeutic drug treatment) is defined as achieving a reduced risk for a disease that the drug is intended to treat or prevent (e.g., stroke) by administrating the drug treatment, compared with the risk for the disease in the absence of receiving the drug treatment (or receiving a placebo in lieu of the drug treatment) for the same genotype. The term “benefit” may be used herein interchangeably with terms such as “respond positively” or “positively respond”. For stroke risk and statin response associations based on samples from the CARE and PROSPER trials described herein, stroke risk is assessed by comparing the risk of stroke for a given genotype with the risk of stroke for a reference genotype either in the placebo arm of the trial or in the whole study population of the trial, and statin response is assessed by comparing the risk of stroke in the pravastatin arm of the trial with the risk of stroke in the placebo arm of the trial for the same genotype. […] Example Five above describes the analysis of these 61 SNPs plus 17 additional SNPs in the German West Study. […] In PROSPER, SNPs were analyzed for association with stroke risk or SSR, in the whole study cohort (strata: “ALL”), or in the subgroup with a history of CVD (strata: “hist”) or without a CVD history (strata: “no hist”). […] Also in the CARE and PROSPER trials, the chromosome 9p21 SNP […] (hCV26505812) was analyzed further for association with SSR, including unadjusted and adjusted analysis. Adjusted analysis in CARE (Table 37) was adjusted for age, gender, smoking status, hypertension, diabetes, body mass index (BMI), and LDL and HDL levels, and adjusted analysis in PROSPER (Table 38) was adjusted for country, gender, age, LDL, HDL, smoking status (current vs. past or never), history of hypertension, and diabetes. Table 37 provides results in CARE, and Table 38 provides results in PROSPER (whether each analysis is unadjusted or adjusted is indicated in the “adjust” column in Table 37, or by “unadj” and “adj” column labels in Tables 38). All the p-values (including Pint values) provided in Tables 37-38 are two-sided p-values.", "key": {"[1]": {"settings": "hCV1348610 rs3739636 C9orf46, GENO_RESP AA + AG, MODE DOM, STRATA hist"}, "[2]": {"settings": "hCV1348610 rs3739636 C9orf46, GENO_RESP AA, MODE GEN, STRATA hist"}, "[3]": {"settings": "hCV1348610 rs3739636 C9orf46, GENO_RESP AG, MODE GEN, STRATA hist"}, "[4]": {"settings": "hCV1348610 rs3739636 C9orf46, GENO_RESP GG, MODE GEN, STRATA hist"}, "[5]": {"settings": "hCV2091644 rs1010 VAMP8, GENO_RESP CC, MODE GEN, STRATA no hist"}, "[6]": {"settings": "hCV2091644 rs1010 VAMP8, GENO_RESP CT, MODE GEN, STRATA no hist"}, "[7]": {"settings": "hCV2091644 rs1010 VAMP8, GENO_RESP TT, MODE GEN, STRATA no hist"}}}
{"smiles": "CC[C@H](C)C(=O)O[C@H]1C[C@H](O)C=C2C=C[C@H](C)[C@H](CC[C@@H](O)C[C@@H](O)CC(=O)O)[C@H]21", "note": "[pravastatin]", "values": [{"measurement": "HR_RESP_unadj (hazard ratio, pravastatin-treated versus placebo-treated)", "setting": "PROSPER, rs10757274 genotype AA + AG, mode REC, strata ALL, unadjusted", "value": 0.919}, {"measurement": "HR_RESP_unadj (hazard ratio, pravastatin-treated versus placebo-treated)", "setting": "PROSPER, rs10757274 genotype AA + AG, mode REC, strata hist, unadjusted", "value": 0.885}, {"measurement": "HR_RESP_unadj (hazard ratio, pravastatin-treated versus placebo-treated)", "setting": "PROSPER, rs10757274 genotype AA + AG, mode REC, strata no hist, unadjusted", "value": 0.927}, {"measurement": "HR_RESP_unadj (hazard ratio, pravastatin-treated versus placebo-treated)", "setting": "PROSPER, rs10757274 genotype AA, mode GEN, strata ALL, unadjusted", "value": 1.330}, {"measurement": "HR_RESP_unadj (hazard ratio, pravastatin-treated versus placebo-treated)", "setting": "PROSPER, rs10757274 genotype AA, mode GEN, strata hist, unadjusted", "value": 1.093}, {"measurement": "HR_RESP_unadj (hazard ratio, pravastatin-treated versus placebo-treated)", "setting": "PROSPER, rs10757274 genotype AA, mode GEN, strata no hist, unadjusted", "value": 1.570}, {"measurement": "HR_RESP_unadj (hazard ratio, pravastatin-treated versus placebo-treated)", "setting": "PROSPER, rs10757274 genotype AG, mode GEN, strata ALL, unadjusted", "value": 0.777}, {"measurement": "HR_RESP_unadj (hazard ratio, pravastatin-treated versus placebo-treated)", "setting": "PROSPER, rs10757274 genotype AG, mode GEN, strata hist, unadjusted", "value": 0.816}, {"measurement": "HR_RESP_unadj (hazard ratio, pravastatin-treated versus placebo-treated)", "setting": "PROSPER, rs10757274 genotype AG, mode GEN, strata no hist, unadjusted", "value": 0.698}, {"measurement": "HR_RESP_unadj (hazard ratio, pravastatin-treated versus placebo-treated)", "setting": "PROSPER, rs10757274 genotype GG + AG, mode DOM, strata ALL, unadjusted", "value": 0.864}, {"measurement": "HR_RESP_unadj (hazard ratio, pravastatin-treated versus placebo-treated)", "setting": "PROSPER, rs10757274 genotype GG + AG, mode DOM, strata hist, unadjusted", "value": 0.892}, {"measurement": "HR_RESP_unadj (hazard ratio, pravastatin-treated versus placebo-treated)", "setting": "PROSPER, rs10757274 genotype GG + AG, mode DOM, strata no hist, unadjusted", "value": 0.813}, {"measurement": "HR_RESP_unadj (hazard ratio, pravastatin-treated versus placebo-treated)", "setting": "PROSPER, rs10757274 genotype GG, mode GEN, strata ALL, unadjusted", "value": 1.082}, {"measurement": "HR_RESP_unadj (hazard ratio, pravastatin-treated versus placebo-treated)", "setting": "PROSPER, rs10757274 genotype GG, mode GEN, strata hist, unadjusted", "value": 1.098}, {"measurement": "HR_RESP_unadj (hazard ratio, pravastatin-treated versus placebo-treated)", "setting": "PROSPER, rs10757274 genotype GG, mode GEN, strata no hist, unadjusted", "value": 1.068}, {"measurement": "HR (hazard ratio) for stroke events, pravastatin-treated versus placebo-treated", "setting": "PROSPER, heterozygous carriers of SNP rs10757274 (chromosome 9p21), unadjusted", "value": 0.777}, {"measurement": "EVENTS_RESP (number of stroke events)", "setting": "PROSPER, genotype AA + AG, mode REC, strata ALL", "value": 150}, {"measurement": "EVENTS_RESP (number of stroke events)", "setting": "PROSPER, genotype AA + AG, mode REC, strata hist", "value": 87}, {"measurement": "EVENTS_RESP (number of stroke events)", "setting": "PROSPER, genotype AA + AG, mode REC, strata no hist", "value": 63}, {"measurement": "EVENTS_RESP (number of stroke events)", "setting": "PROSPER, genotype AA, mode GEN, strata ALL", "value": 56}, {"measurement": "EVENTS_RESP (number of stroke events)", "setting": "PROSPER, genotype AA, mode GEN, strata hist", "value": 28}, {"measurement": "EVENTS_RESP (number of stroke events)", "setting": "PROSPER, genotype AA, mode GEN, strata no hist", "value": 28}, {"measurement": "EVENTS_RESP (number of stroke events)", "setting": "PROSPER, genotype AG, mode GEN, strata ALL", "value": 94}, {"measurement": "EVENTS_RESP (number of stroke events)", "setting": "PROSPER, genotype AG, mode GEN, strata hist", "value": 59}, {"measurement": "EVENTS_RESP (number of stroke events)", "setting": "PROSPER, genotype AG, mode GEN, strata no hist", "value": 35}, {"measurement": "EVENTS_RESP (number of stroke events)", "setting": "PROSPER, genotype GG + AG, mode DOM, strata ALL", "value": 145}, {"measurement": "EVENTS_RESP (number of stroke events)", "setting": "PROSPER, genotype GG + AG, mode DOM, strata hist", "value": 86}, {"measurement": "EVENTS_RESP (number of stroke events)", "setting": "PROSPER, genotype GG + AG, mode DOM, strata no hist", "value": 59}, {"measurement": "EVENTS_RESP (number of stroke events)", "setting": "PROSPER, genotype GG, mode GEN, strata ALL", "value": 51}, {"measurement": "EVENTS_RESP (number of stroke events)", "setting": "PROSPER, genotype GG, mode GEN, strata hist", "value": 27}, {"measurement": "EVENTS_RESP (number of stroke events)", "setting": "PROSPER, genotype GG, mode GEN, strata no hist", "value": 24}, {"measurement": "EVENTS_RESP", "setting": "[1]", "value": 71}, {"measurement": "HR_RESP (hazard ratio, pravastatin-treated versus placebo-treated)", "setting": "[1]", "value": 0.8064}, {"measurement": "EVENTS_RESP", "setting": "[2]", "value": 24}, {"measurement": "HR_RESP (hazard ratio, pravastatin-treated versus placebo-treated)", "setting": "[2]", "value": 0.9861}, {"measurement": "EVENTS_RESP", "setting": "[3]", "value": 47}, {"measurement": "HR_RESP (hazard ratio, pravastatin-treated versus placebo-treated)", "setting": "[3]", "value": 0.7406}, {"measurement": "EVENTS_RESP", "setting": "[4]", "value": 43}, {"measurement": "HR_RESP (hazard ratio, pravastatin-treated versus placebo-treated)", "setting": "[4]", "value": 1.277}, {"measurement": "EVENTS_RESP", "setting": "hCV2091644 rs1010 VAMP8, GENO_RESP CC + CT, MODE DOM, STRATA no hist", "value": 50}, {"measurement": "EVENTS_RESP", "setting": "[5]", "value": 13}, {"measurement": "HR_RESP (hazard ratio, pravastatin-treated versus placebo-treated)", "setting": "[5]", "value": 0.6359}, {"measurement": "EVENTS_RESP", "setting": "[6]", "value": 37}, {"measurement": "HR_RESP (hazard ratio, pravastatin-treated versus placebo-treated)", "setting": "[6]", "value": 0.8504}, {"measurement": "EVENTS_RESP", "setting": "[7]", "value": 36}, {"measurement": "HR_RESP (hazard ratio, pravastatin-treated versus placebo-treated)", "setting": "[7]", "value": 1.358}, {"measurement": "EVENTS_RESP", "setting": "hCV2169762 rs1804689 HPS1, GENO_RESP GG + GT, MODE REC, STRATA hist", "value": 109}, {"measurement": "EVENTS_RESP", "setting": "hCV2169762 rs1804689 HPS1, GENO_RESP GG, MODE GEN, STRATA hist", "value": 62}]}
